The text below walks through data of patent US8124609B2, “Acyclic nucleoside derivatives” (Medivir AB, priority 1996, dated 2012).

SMILES strings stand for the structures.

Holding throughout (assay type): in vivo
A short description of data set [1]: Plasma concentrations in rats (plasma drug assay, H2G AUC oral vs i.v.). As to conditions: rat, 10 mg/kg oral dose in propylene glycol, plasma H2G AUC vs 10 mg/kg intravenous H2G. As to the method:
A plasma concentration assay was done in male Sprague Dawley derived rats. The animals were fasted overnight prior to dosing but were permitted free access to water. Each of the compounds evaluated was prepared as a solution/suspension in propylene glycol at a concentration corresponding to 10 mg H2G/ml and shaken at room temperature for eight hours. Groups of rats (at least 4 rats in each group) received a 10 mg/kg (1 ml/kg) oral dose of each of the compounds; the dose was administered by gavage. At selected time points after dosing (0.25, 0.5, 1, 1.5, 2, 4, 6, 9, 12, 15, and 24 hours after dosing), heparinized blood samples (0.4 ml/sample) were obtained from a tail vein of each animal. The blood samples were immediately chilled in an ice bath. Within two hours of collection, the plasma was separated from the red cells by centrifugation and frozen till analysis. The components of interest were separated from the plasma proteins using acetonitrile precipitation. Following lyophilisation, and reconstitution, the plasma concentrations were determined by reverse phase HPLC with fluorescence detection. The oral uptake of H2G and other test compounds was determined by comparison of the H2G area under the curve derived from the oral dose compared to that obtained from a 10 mg/kg intravenous dose of H2G, administered to a separate group of rats. The results are depicted in Table 1B above.

The nature of data set [2]: Bioavailability testing in rats (24 h urinary H2G recovery). The settings on record: rat; for Bioavailability (Table 2): 0.1 mmol/kg per oral, 24 hour urinary H2G recovery as percentage of recovery after 0.1 mmol/kg i.v. H2G. On the procedure: The bioavailability of compounds of the invention were compared to the parent compound H2G and other H2G derivatives in a rat model. Compounds of the invention and comparative compounds were administered, per oral (by catheter into the stomach), to multiples of three individually weighed animals to give 0.1 mmol/kg of the dissolved prod rug in an aqueous (Example 4, 5, Comparative example 1-3, 5, 8), peanut oil (Comparative examples 4, 9, 10) or propylene glycol (Example 1-3, 6-12, 17, Comparative example 6, 7) vehicle dependent on the solubility of the test compound ingredient. The animals were fasted from 5 hours before to approximately 17 hours after administration and were maintained in metabolic cages. Urine was collected for the 24 hours following administration and frozen until analysis. H2G was analysed in the urine using the HPLC/UV assay of Stahle & Öberg, Antimicrob Agents Chemother. 36 No 2, 339-342 (1992), modified as follows: samples upon thawing are diluted 1:100 in aq dist H2O and filtered through an amicon filter with centrifugation at 3000 rpm for 10 minutes. Duplicate 30 μl samples are chromatographed on an HPLC column; Zorbax SB-C18; 75×4.6 mm; 3.5 micron; Mobile phase 0.05M NH4PO4, 3-4% methanol, pH 3.3-3.5; 0.5 ml/min; 254 nm, retention time for H2G at MeOH 4% and pH 3.33, ˜12.5 min. Bioavailability is calculated as the measured H2G recovery from each animal averaged over at least three animals and expressed as a percentage of the averaged 24 hour urinary H2G recovery from a group of 4 individually weighed rats respectively injected i.vjugularis with 0.1 mmol/kg H2G in a Ringer's buffer vehicle and analysed as above.
Comparative example 1 (H2G) was from the same batch as used for preparation of Examples 1 to 12. The preparation of Comparative example 2 (monoVal-H2G) and 3 (diVal-H2G) are shown in Examples 21 and 23. […] Comparative examples 5 & 8 (Val/Ac H2G) were prepared analogously to Example 4 using acetic anhydride with relevant monovaline H2G. […]

For data set [3], the system named is Herpes simplex virus-1 (HSV-1). Briefly: Antiviral activity in HSV-1-infected mouse (survival). The settings on record: 21 and 83 mg/kg p.o. three times daily for 5 days, relative to equivalent dose of acyclovir. On the procedure:
Herpes simplex virus-1 (HSV-1)-infected mouse serves as an animal model to determine the efficacy of antiviral agents in vivo. Mice inoculated intraperitoneally with HSV-1 at 1000 times the LD50 were administered either with a formulation comprising the currently marketed anti-herpes agent acyclovir (21 and 83 mg/kg in a 2% propylene glycol in sterile water vehicle, three times daily, p.o.) or the compound of Example 29 (21 and 83 mg/kg in a 2% propylene glycol in sterile water vehicle, three times daily, p.o.) for 5 consecutive days beginning 5 hours after inoculation. The animals were assessed daily for deaths. […] In the legend, the compound of the invention is denoted Ex. 29 and acyclovir is denoted ACV.

As for `Nc1nc2c(ncn2CC(CO)CCO)c(=O)[nH]1` (centres unmarked) [Comparative example 1, 9-[4-hydroxy-(2-hydroxymethyl)butyl]guanine], the “Bioavailability (Table 1B)” value in data set [1] was 3.8%. Also, the “Bioavailability (Table 2)” value in data set [2] was found to be 8%. Also, in data set [2] (oral, urinary recovery assay of H2G, relative to i.v. H2G), the “Bioavailability (Table 1A)” value is 8%.
`CCCCCCCCCCCCCCCCCC(=O)OC[C@H](CCOC(=O)[C@@H](N)C(C)C)Cn1cnc2c(=O)[nH]c(N)nc21.Cl` [Example 29]: in data set [3], the “percentage of mice surviving the HSV-1 infection” value is recorded as “significantly greater”.
Turning to `CC(=O)CCCC(=O)OC[C@H](CCOC(=O)[C@@H](N)C(C)C)Cn1cnc2c(=O)[nH]c(N)nc21` [Example 10], in data set [2], the “Bioavailability (Table 2)” value is on record as 52%.
